Source: ChEMBL document CHEMBL5244269, “Improving metabolic stability and removing aldehyde oxidase liability in a 5-azaquinazoline series of IRAK4 inhibitors” (Bioorg Med Chem, 2020)

Legend:
Format in all cases: functional
OCI-Ly10 [1] = assay: Growth inhibition of human OCILY10 cells at 0.17 uM incubated for 3 days in presence of 0.003 uM acalabrutinib relative to control; details: OCI-Ly10, 72 h, time 3 day, read-out: GI
SUD4 [2] = assay: Growth inhibition of human SU-DHL-4 cells at 0.33 uM incubated for 3 days in presence of 0.17 uM acalabrutinib relative to control; details: SU-DHL-4, 72 h, time 3 day, read-out: GI
SUD4 [3] = assay: Growth inhibition of human SU-DHL-4 cells at 10 uM incubated for 3 days in presence of 0.017 uM acalabrutinib relative to control; details: SU-DHL-4, 72 h, time 3 day, read-out: GI
OCI-Ly10 [4] = assay: Growth inhibition of human OCILY10 cells at 10 uM incubated for 3 days in presence of 0.003 uM acalabrutinib relative to control; details: OCI-Ly10, 72 h, time 3 day, read-out: GI
SUD4 [5] = assay: Growth inhibition of human SU-DHL-4 cells at 3.3 uM incubated for 3 days in presence of 0.17 uM acalabrutinib relative to control; details: SU-DHL-4, 72 h, time 3 day, read-out: GI
OCI-Ly10 [6] = assay: Growth inhibition of human OCILY10 cells at 10 uM incubated for 3 days in presence of 0.33 uM acalabrutinib relative to control; details: OCI-Ly10, 72 h, time 3 day, read-out: GI
OCI-Ly10 [7] = assay: Growth inhibition of human OCILY10 cells at 0.17 uM incubated for 3 days in presence of 0.017 uM acalabrutinib relative to control; details: OCI-Ly10, 72 h, time 3 day, read-out: GI
OCI-Ly10 [8] = assay: Growth inhibition of human OCILY10 cells at 0.17 uM incubated for 3 days in presence of 0.33 uM acalabrutinib relative to control; details: OCI-Ly10, 72 h, time 3 day, read-out: GI
SUD4 [9] = assay: Growth inhibition of human SU-DHL-4 cells at 10 uM incubated for 3 days in presence of 0.33 uM acalabrutinib relative to control; details: SU-DHL-4, 72 h, time 3 day, read-out: GI
SUD4 [10] = assay: Growth inhibition of human SU-DHL-4 cells at 0.17 uM incubated for 3 days in presence of 0.17 uM acalabrutinib relative to control; details: SU-DHL-4, 72 h, time 3 day, read-out: GI
SUD4 [11] = assay: Growth inhibition of human SU-DHL-4 cells at 0.17 uM incubated for 3 days in presence of 0.33 uM acalabrutinib relative to control; details: SU-DHL-4, 72 h, time 3 day, read-out: GI
OCI-Ly10 [12] = assay: Growth inhibition of human OCILY10 cells at 0.33 uM incubated for 3 days in presence of 0.033 uM acalabrutinib relative to control; details: OCI-Ly10, 72 h, time 3 day, read-out: GI
OCI-Ly10 [13] = assay: Growth inhibition of human OCILY10 cells at 1.7 uM incubated for 3 days in presence of 0.33 uM acalabrutinib relative to control; details: OCI-Ly10, 72 h, time 3 day, read-out: GI
SUD4 [14] = assay: Growth inhibition of human SU-DHL-4 cells at 3.3 uM incubated for 3 days in presence of 0.033 uM acalabrutinib relative to control; details: SU-DHL-4, 72 h, time 3 day, read-out: GI
SUD4 [15] = assay: Growth inhibition of human SU-DHL-4 cells at 0.33 uM incubated for 3 days in presence of 0.003 uM acalabrutinib relative to control; details: SU-DHL-4, 72 h, time 3 day, read-out: GI
OCI-Ly10 [16] = assay: Growth inhibition of human OCILY10 cells at 10 uM incubated for 3 days in presence of 0.017 uM acalabrutinib relative to control; details: OCI-Ly10, 72 h, time 3 day, read-out: GI
SUD4 [17] = assay: Growth inhibition of human SU-DHL-4 cells at 3.3 uM incubated for 3 days in presence of 0.017 uM acalabrutinib relative to control; details: SU-DHL-4, 72 h, time 3 day, read-out: GI
OCI-Ly10 [18] = assay: Growth inhibition of human OCILY10 cells at 1.7 uM incubated for 3 days in presence of 0.017 uM acalabrutinib relative to control; details: OCI-Ly10, 72 h, time 3 day, read-out: GI
SUD4 [19] = assay: Growth inhibition of human SU-DHL-4 cells at 0.17 uM incubated for 3 days in presence of 0.033 uM acalabrutinib relative to control; details: SU-DHL-4, 72 h, time 3 day, read-out: GI
OCI-Ly10 [20] = assay: Growth inhibition of human OCILY10 cells at 3.3 uM incubated for 3 days in presence of 0.003 uM acalabrutinib relative to control; details: OCI-Ly10, 72 h, time 3 day, read-out: GI
OCI-Ly10 [21] = assay: Growth inhibition of human OCILY10 cells at 1.7 uM incubated for 3 days in presence of 0.003 uM acalabrutinib relative to control; details: OCI-Ly10, 72 h, time 3 day, read-out: GI
OCI-Ly10 [22] = assay: Growth inhibition of human OCILY10 cells at 0.17 uM incubated for 3 days in presence of 0.033 uM acalabrutinib relative to control; details: OCI-Ly10, 72 h, time 3 day, read-out: GI
SUD4 [23] = assay: Growth inhibition of human SU-DHL-4 cells at 0.33 uM incubated for 3 days in presence of 0.017 uM acalabrutinib relative to control; details: SU-DHL-4, 72 h, time 3 day, read-out: GI
SUD4 [24] = assay: Growth inhibition of human SU-DHL-4 cells at 10 uM incubated for 3 days in presence of 0.003 uM acalabrutinib relative to control; details: SU-DHL-4, 72 h, time 3 day, read-out: GI
SUD4 [25] = assay: Growth inhibition of human SU-DHL-4 cells at 10 uM incubated for 3 days in presence of 0.033 uM acalabrutinib relative to control; details: SU-DHL-4, 72 h, time 3 day, read-out: GI
OCI-Ly10 [26] = assay: Growth inhibition of human OCILY10 cells at 3.3 uM incubated for 3 days in presence of 0.017 uM acalabrutinib relative to control; details: OCI-Ly10, 72 h, time 3 day, read-out: GI
OCI-Ly10 [27] = assay: Growth inhibition of human OCILY10 cells at 0.17 uM incubated for 3 days in presence of 0.17 uM acalabrutinib relative to control; details: OCI-Ly10, 72 h, time 3 day, read-out: GI
SUD4 [28] = assay: Growth inhibition of human SU-DHL-4 cells at 10 uM incubated for 3 days in presence of 0.17 uM acalabrutinib relative to control; details: SU-DHL-4, 72 h, time 3 day, read-out: GI
SUD4 [29] = assay: Growth inhibition of human SU-DHL-4 cells at 1.7 uM incubated for 3 days in presence of 0.003 uM acalabrutinib relative to control; details: SU-DHL-4, 72 h, time 3 day, read-out: GI
SUD4 [30] = assay: Growth inhibition of human SU-DHL-4 cells at 1.7 uM incubated for 3 days in presence of 0.33 uM acalabrutinib relative to control; details: SU-DHL-4, 72 h, time 3 day, read-out: GI
SUD4 [31] = assay: Growth inhibition of human SU-DHL-4 cells at 0.33 uM incubated for 3 days in presence of 0.033 uM acalabrutinib relative to control; details: SU-DHL-4, 72 h, time 3 day, read-out: GI
OCI-Ly10 [32] = assay: Growth inhibition of human OCILY10 cells at 10 uM incubated for 3 days in presence of 0.17 uM acalabrutinib relative to control; details: OCI-Ly10, 72 h, time 3 day, read-out: GI
OCI-Ly10 [33] = assay: Growth inhibition of human OCILY10 cells at 1.7 uM incubated for 3 days in presence of 0.033 uM acalabrutinib relative to control; details: OCI-Ly10, 72 h, time 3 day, read-out: GI
SUD4 [34] = assay: Growth inhibition of human SU-DHL-4 cells at 0.33 uM incubated for 3 days in presence of 0.33 uM acalabrutinib relative to control; details: SU-DHL-4, 72 h, time 3 day, read-out: GI
OCI-Ly10 [35] = assay: Growth inhibition of human OCILY10 cells at 3.3 uM incubated for 3 days in presence of 0.33 uM acalabrutinib relative to control; details: OCI-Ly10, 72 h, time 3 day, read-out: GI
OCI-Ly10 [36] = assay: Growth inhibition of human OCILY10 cells at 3.3 uM incubated for 3 days in presence of 0.17 uM acalabrutinib relative to control; details: OCI-Ly10, 72 h, time 3 day, read-out: GI
SUD4 [37] = assay: Growth inhibition of human SU-DHL-4 cells at 1.7 uM incubated for 3 days in presence of 0.017 uM acalabrutinib relative to control; details: SU-DHL-4, 72 h, time 3 day, read-out: GI
OCI-Ly10 [38] = assay: Growth inhibition of human OCILY10 cells at 0.33 uM incubated for 3 days in presence of 0.003 uM acalabrutinib relative to control; details: OCI-Ly10, 72 h, time 3 day, read-out: GI
OCI-Ly10 [39] = assay: Growth inhibition of human OCILY10 cells at 3.3 uM incubated for 3 days in presence of 0.033 uM acalabrutinib relative to control; details: OCI-Ly10, 72 h, time 3 day, read-out: GI
SUD4 [40] = assay: Growth inhibition of human SU-DHL-4 cells at 1.7 uM incubated for 3 days in presence of 0.17 uM acalabrutinib relative to control; details: SU-DHL-4, 72 h, time 3 day, read-out: GI
SUD4 [41] = assay: Growth inhibition of human SU-DHL-4 cells at 3.3 uM incubated for 3 days in presence of 0.003 uM acalabrutinib relative to control; details: SU-DHL-4, 72 h, time 3 day, read-out: GI

## Cc1ncc(-c2nc3c(OC4(C)CC4)nc(Nc4cnn(C5CCN(C)CC5)c4)nc3cc2F)cn1
OCI-Ly10 [1]
  inhibition of growth at 0.17 µM: 24%
SUD4 [2]
  inhibition of growth at 0.33 µM: -2%
SUD4 [3]
  inhibition of growth at 10 µM: 2%
OCI-Ly10 [4]
  inhibition of growth at 10 µM: 195%
SUD4 [5]
  inhibition of growth at 3.3 µM: -3%
OCI-Ly10 [6]
  inhibition of growth at 10 µM: 197%
OCI-Ly10 [7]
  inhibition of growth at 0.17 µM: 92%
OCI-Ly10 [8]
  inhibition of growth at 0.17 µM: 138%
SUD4 [9]
  inhibition of growth at 10 µM: 0%
SUD4 [10]
  inhibition of growth at 0.17 µM: -3%
SUD4 [11]
  inhibition of growth at 0.17 µM: -2%
OCI-Ly10 [12]
  inhibition of growth at 0.33 µM: 155%
OCI-Ly10 [13]
  inhibition of growth at 1.7 µM: 193%
SUD4 [14]
  inhibition of growth at 3.3 µM: -4%
SUD4 [15]
  inhibition of growth at 0.33 µM: 0%
OCI-Ly10 [16]
  inhibition of growth at 10 µM: 198%
SUD4 [17]
  inhibition of growth at 3.3 µM: 0%
OCI-Ly10 [18]
  inhibition of growth at 1.7 µM: 188%
SUD4 [19]
  inhibition of growth at 0.17 µM: -4%
OCI-Ly10 [20]
  inhibition of growth at 3.3 µM: 156%
OCI-Ly10 [21]
  inhibition of growth at 1.7 µM: 93%
OCI-Ly10 [22]
  inhibition of growth at 0.17 µM: 117%
SUD4 [23]
  inhibition of growth at 0.33 µM: 1%
SUD4 [24]
  inhibition of growth at 10 µM: 1%
SUD4 [25]
  inhibition of growth at 10 µM: -2%
OCI-Ly10 [26]
  inhibition of growth at 3.3 µM: 194%
OCI-Ly10 [27]
  inhibition of growth at 0.17 µM: 147%
SUD4 [28]
  inhibition of growth at 10 µM: -1%
SUD4 [29]
  inhibition of growth at 1.7 µM: -1%
SUD4 [30]
  inhibition of growth at 1.7 µM: -2%
SUD4 [31]
  inhibition of growth at 0.33 µM: -3%
OCI-Ly10 [32]
  inhibition of growth at 10 µM: 199%
OCI-Ly10 [33]
  inhibition of growth at 1.7 µM: 193%
SUD4 [34]
  inhibition of growth at 0.33 µM: -1%
OCI-Ly10 [35]
  inhibition of growth at 3.3 µM: 194%
OCI-Ly10 [36]
  inhibition of growth at 3.3 µM: 194%
SUD4 [37]
  inhibition of growth at 1.7 µM: 0%
OCI-Ly10 [38]
  inhibition of growth at 0.33 µM: 33%
OCI-Ly10 [39]
  inhibition of growth at 3.3 µM: 194%
SUD4 [40]
  inhibition of growth at 1.7 µM: -3%
SUD4 [41]
  inhibition of growth at 3.3 µM: -1%
